How the values were obtained:
Assay type in all cases: physicochemical
[1] = Solid form stability in a drying process; details: drying process (>60° C.)
[2] = Thermogravimetric analysis (TGA), decomposition; details: heated under nitrogen at 10° C./min from 30° C. to 300° C.
Experimental: Thermogravimetric analysis (TGA): Thermogravimetric analyses were recorded in a Mettler Toledo TGA/SDTA851 with a balance MT1 type. Approximately 3-4 mg of sample were weighed (using a MX5 Mettler Toledo microbalance) into 40 μL aluminium crucibles with a pinhole lid and heated under nitrogen (10 mL/min) at 10° C./min from 30° C. to 300° C. Programs used: Data collection and evaluation with software STARe.

Hygroscopicity (DVS) = details: for PXRD after DVS experiment (solid form): after hygroscopicity (DVS) experiment

Row | Compound | Solid form change in a drying process [1] | TGA: decomposition occurs at [2] | Hygroscopicity (DVS): water adsorption (Hygroscopicity (DVS); 10-80% RH) | Hygroscopicity (DVS): water adsorption (Hygroscopicity (DVS); 10-90% RH) | PXRD after DVS experiment (solid form) (Hygroscopicity (DVS))
1 | CCO.COc1cccc(N2CCN(C3=Nc4c(F)cccc4[C@H](CC(=O)[O-])N3c3cc(C(F)(F)F)ccc3OC)CC2)c1.O.[Na+] [Ethanol/Water Solvate, sodium 2-[(4S)-8-fluoro-2-[4-(3-methoxyphenyl)piperazin-1-yl]-3-[2-methoxy-5-(trifluoromethyl)phenyl]-4H-quinazolin-4-yl]acetate ethanol monohydrate] | The solid turns into the amorphous | Decomposition occurs at ca. 250 °C | 5.3% water adsorption (10-80% RH) | 3.2% water adsorption (10-90% RH) | PXRD after experiment: trihydrate
2 | COc1cccc(N2CCN(C3=Nc4c(F)cccc4[C@H](CC(=O)O)N3c3cc(C(F)(F)F)ccc3OC)CC2)c1 [Trihydrate, sodium 2-[(4S)-8-fluoro-2-[4-(3-methoxyphenyl)piperazin-1-yl]-3-[2-methoxy-5-(trifluoromethyl)phenyl]-4H-quinazolin-4-yl]acetate trihydrate] | The solid turns into the amorphous | Decomposition occurs at ca. 250 °C | 4.1% water adsorption (10-80% RH) | 8.6% water adsorption (10-90% RH) | No PXRD changes after experiment
